Active and inactive are the calls of the source. No cut-off for these calls is given here.
Experiments:
[1] = system: MOLM-13; assay: Induction of apoptosis in human MOLM-13 cells assessed as viable cells at 5 uM incubated for 48 hrs by Annexin V-FITC/PI staining based flow cytometry (reference value: 89.8 %); type: functional; settings: read-out: Activity
[2] = system: HUVEC; assay: Effect on TACC3 mRNA level in HUVEC cells at 5 to 10 uM incubated for 48 hrs by qRT-PCR analysis; type: functional, cell-based; settings: Homo sapiens, dose 5-10 µM
[3] = Apparent oral clearance in Sprague-Dawley rat at 2 mg/kg, iv measured for 1 to 1440 mins by LC-MS/MS analysis; type: ADME, organism-based; settings: in vivo, time 1-1440 min
[4] = system: MOLM-13; assay: Downregulation of c-Myc level in human MOLM-13 cells upto 10 uM incubated for 48 hrs by Western blot analysis; type: functional, cell-based
[5] = target: Alpha-ketoglutarate-dependent dioxygenase FTO (Homo sapiens, UniProt Q9C0B1); assay: Binding affinity to NT-647-NHS fluorescent dye-labeled FTO (32 to 505 residues)(unknown origin) expressed in Escherichia coli BL21(DE3) using m6A-ssDNA as substrate incubated for 15 mins by MST assay
Sequence of Alpha-ketoglutarate-dependent dioxygenase FTO (Q9C0B1 whole entry, looked up, the tested form may be a part): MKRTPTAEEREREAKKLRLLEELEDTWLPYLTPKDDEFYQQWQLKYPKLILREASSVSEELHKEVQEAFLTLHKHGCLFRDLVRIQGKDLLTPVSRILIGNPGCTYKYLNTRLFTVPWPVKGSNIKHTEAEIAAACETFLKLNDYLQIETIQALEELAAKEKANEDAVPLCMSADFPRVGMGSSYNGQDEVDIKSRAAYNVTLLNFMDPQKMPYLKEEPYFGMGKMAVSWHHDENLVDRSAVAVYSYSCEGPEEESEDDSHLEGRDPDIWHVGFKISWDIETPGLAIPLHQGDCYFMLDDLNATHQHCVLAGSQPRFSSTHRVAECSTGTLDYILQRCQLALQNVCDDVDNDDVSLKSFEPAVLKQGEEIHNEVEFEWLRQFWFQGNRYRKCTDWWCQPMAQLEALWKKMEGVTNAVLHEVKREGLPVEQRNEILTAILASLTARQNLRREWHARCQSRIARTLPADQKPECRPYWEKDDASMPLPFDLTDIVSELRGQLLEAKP

[6] = Toxicity in nude mouse xenografted with human MV4-11 cells assessed as liver weight change at 10 to 40 mg/kg, ip treated every day for 14 days; type: organism-based; settings: in vivo, 336 h, dose 10-40 mg/kg, time 14 day
[7] = Toxicity in nude mouse xenografted with human MV4-11 cells assessed as liver damage at 10 to 40 mg/kg, ip treated every day for 14 days by H and E staining based analysis; type: organism-based; settings: in vivo, 336 h, dose 10-40 mg/kg, time 14 day
[8] = system: MOLM-13; assay: Antiproliferative activity against human MOLM-13 cells assessed as inhibition of cell proliferation incubated for 72 hrs by Cell Titer Luminescence assay; type: functional, cell-based; settings: MOLM-13, 72 h
[9] = system: MV4-11; assay: Downregulation of TACC3 level in human MV4-11 cells upto 10 uM incubated for 48 hrs by Western blot analysis; type: functional, cell-based
[10] = system: MV4-11; assay: Antitumor activity against human MV4-11 cells xenografted in nude mouse assessed as tumor growth inhibition at 20 mg/kg, ip treated every day for 14 days relative to control; type: functional; settings: MV4-11, 336 h, time 14 day, read-out: TGI
[11] = system: MOLM-13; assay: Induction of apoptosis in human MOLM-13 cells assessed as late apoptosis cells at 5 uM incubated for 48 hrs by Annexin V-FITC/PI staining based flow cytometry (reference value: 6.49 %); type: functional
[12] = target: T1, RNA demethylase ALKBH5 (Homo sapiens, UniProt Q6P6C2); assay: Inhibition of ALKBH5 (66 to 292 residues)(unknown origin) expressed in Escherichia coli BL21(DE3) using 5'-ATTGTCA(m6A)CAGCAGA-FAM-3' as substrate incubated for 30 mins in presence of 0.2 uM of 2-OG by FP based competitive binding assay
Target sequence in this assay (Q6P6C2 whole entry, the tested form may be a part): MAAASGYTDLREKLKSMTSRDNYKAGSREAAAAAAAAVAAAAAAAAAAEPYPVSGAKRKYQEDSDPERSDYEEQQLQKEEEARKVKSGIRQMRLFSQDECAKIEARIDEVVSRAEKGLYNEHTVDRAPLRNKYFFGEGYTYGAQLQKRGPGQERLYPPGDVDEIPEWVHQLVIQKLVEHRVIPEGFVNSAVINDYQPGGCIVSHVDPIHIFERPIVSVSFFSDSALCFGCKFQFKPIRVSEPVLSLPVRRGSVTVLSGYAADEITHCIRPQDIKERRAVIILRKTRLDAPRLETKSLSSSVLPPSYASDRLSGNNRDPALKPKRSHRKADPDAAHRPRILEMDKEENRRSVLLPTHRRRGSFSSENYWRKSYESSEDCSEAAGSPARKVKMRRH

[13] = system: MV4-11; assay: Induction of apoptosis in human MV4-11 cells assessed as necrotic cells at 10 uM incubated for 48 hrs by Annexin V-FITC/PI staining based flow cytometry (reference value: 1.81 %); type: functional
[14] = system: HUVEC; assay: Effect on c-Myc level in HUVEC cells upto 10 uM incubated for 48 hrs by Western blot analysis; type: functional, cell-based; settings: Homo sapiens
[15] = system: MOLM-13; assay: Induction of apoptosis in human MOLM-13 cells assessed as early apoptosis cells at 5 uM incubated for 48 hrs by Annexin V-FITC/PI staining based flow cytometry (reference value: 2.72 %); type: functional
[16] = Toxicity in nude mouse xenografted with human MV4-11 cells assessed as spleen weight change at 10 to 40 mg/kg, ip treated every day for 14 days; type: organism-based; settings: in vivo, 336 h, dose 10-40 mg/kg, time 14 day
[17] = system: MOLM-13; assay: Downregulation of TACC3 mRNA level in human MOLM-13 cells assessed as half life of expression at 20 umol/L incubated for 24 hrs by qRT-PCR analysis (reference value: 2.87 hrs); type: functional, cell-based; settings: dose 20.0 µmol/L
[18] = system: MOLM-13; assay: Induction of cell cycle arrest at […] phase in human MOLM-13 cells at 20 uM incubated for 48 hrs by […]PI staining based flow cytometry; type: functional
[19] = target: T1, RNA demethylase ALKBH5; assay: Inhibition of ALKBH5 in human MOLM-13 cells assessed as increase in m6A RNA level by dot blot assay; type: cell-based; settings: dose <= 20.0 µM
Target sequence in this assay (Q6P6C2 2-394 limits assumed): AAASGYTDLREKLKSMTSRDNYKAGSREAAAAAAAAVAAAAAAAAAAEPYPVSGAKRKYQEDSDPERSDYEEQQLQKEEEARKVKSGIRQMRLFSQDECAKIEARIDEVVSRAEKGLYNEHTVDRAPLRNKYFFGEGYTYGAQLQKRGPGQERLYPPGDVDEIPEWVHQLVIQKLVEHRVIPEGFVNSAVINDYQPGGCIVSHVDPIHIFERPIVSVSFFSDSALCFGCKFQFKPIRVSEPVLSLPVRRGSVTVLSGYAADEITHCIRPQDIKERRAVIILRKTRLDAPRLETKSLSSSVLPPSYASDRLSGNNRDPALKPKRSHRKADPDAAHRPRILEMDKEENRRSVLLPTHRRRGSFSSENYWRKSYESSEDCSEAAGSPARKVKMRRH

[20] = system: HEK293; assay: Effect on TACC3 level in HEK293 cells upto 10 uM incubated for 48 hrs by Western blot analysis; type: functional, cell-based; settings: Homo sapiens
[21] = system: HEK293; assay: Effect on c-Myc level in HEK293 cells upto 10 uM incubated for 48 hrs by Western blot analysis; type: functional, cell-based; settings: Homo sapiens
[22] = Toxicity in nude mouse xenografted with human MV4-11 cells assessed as heart weight change at 10 to 40 mg/kg, ip treated every day for 14 days; type: organism-based; settings: in vivo, 336 h, dose 10-40 mg/kg, time 14 day
[23] = target: T1, RNA demethylase ALKBH5; assay: Inhibition of ALKBH5 in human MOLM-13 cells assessed as increase in m6A RNA level by colorimetric assay; type: cell-based; settings: dose 10-20 µM
Target sequence in this assay (Q6P6C2 2-394 limits assumed): as above

[24] = system: MV4-11; assay: Antitumor activity against human MV4-11 cells xenografted in nude mouse assessed as reduction in tumor weight at 10 to 40 mg/kg, ip treated every day for 14 days; type: functional, organism-based; settings: dose 10-40 mg/kg, time 14.0 day
[25] = target: T1, RNA demethylase ALKBH5; assay: Inhibition of ALKBH5 (66 to 292 residues)(unknown origin) expressed in Escherichia coli BL21(DE3) using 5'-TAGACATTGCCATTCTCGATAGG (m6A)-TC CGGTCAAACCTAGAC GAATTCCA-3' as substrate incubated for 2 hrs by restriction endonuclease digestion assay; settings: dose 25-200 µM
Target sequence in this assay (Q6P6C2 2-394 limits assumed): as the sequence (Q6P6C2 2-394 limits assumed) above

[26] = system: MV4-11; assay: Downregulation of TACC3 mRNA level in human MV4-11 cells assessed as half life of expression at 20 umol/L incubated for 24 hrs by qRT-PCR analysis (reference value: 2.63 hrs); type: functional, cell-based; settings: dose 20.0 µmol/L
[27] = Toxicity in nude mouse xenografted with human MV4-11 cells assessed as heart damage at 10 to 40 mg/kg, ip treated every day for 14 days by H and E staining based analysis; type: organism-based; settings: in vivo, 336 h, dose 10-40 mg/kg, time 14 day
[28] = target: RNA demethylase ALKBH5 (Homo sapiens, UniProt Q6P6C2, Y139A); assay: Binding affinity to NT-647-NHS fluorescent dye-labeled ALKBH5 Y139A mutant (unknown origin) expressed in Escherichia coli BL21(DE3) using m6A-ssDNA as substrate assessed as dissociation constant incubated for 15 mins by MST assay
Sequence of RNA demethylase ALKBH5 (Homo sapiens, UniProt Q6P6C2, Y139A) (Q6P6C2 2-394 Y139A limits assumed): as the sequence (Q6P6C2 2-394 limits assumed) above, with Y138A counted along it

[29] = Metabolic stability in rat liver microsomes assessed as half life measured upto 240 mins by LC-MS/MS analysis; type: ADME, Microsome
[30] = AUC (0 to infinity) in Sprague-Dawley rat at 2 mg/kg, iv measured for 1 to 1440 mins by LC-MS/MS analysis; type: ADME, organism-based; settings: in vivo
[31] = system: MV4-11; assay: Downregulation of c-Myc level in human MV4-11 cells upto 10 uM incubated for 48 hrs by Western blot analysis; type: functional, cell-based
[32] = target: T1, RNA demethylase ALKBH5; assay: Inhibition of ALKBH5 (66 to 292 residues)(unknown origin) expressed in Escherichia coli BL21(DE3) using 5'-ATTGTCA(m6A)CAGCAGA-FAM-3' as substrate incubated for 30 mins in presence of 200 uM of 2-OG by FP based competitive binding assay
Target sequence in this assay (Q6P6C2 whole entry, the tested form may be a part): as the sequence (Q6P6C2 whole entry, the tested form may be a part) above

[33] = system: MV4-11; assay: Induction of apoptosis in human MV4-11 cells assessed as late apoptosis cells at 10 uM incubated for 48 hrs by Annexin V-FITC/PI staining based flow cytometry (reference value: 7.17 %); type: functional

## O=C(OCc1ccc(C(F)(F)F)cc1)c1ccc(-c2cc3ncc(C(=O)c4c(O)ccc([N+](=O)[O-])c4O)cn3n2)cc1
[1]
  viability at 5 µM: 77.2%
[2]
  Activity: inactive
[3]
  CL/F: 5 mL/min/kg
[4]
  Activity: Active
[5]
  Activity: inactive
[6]
  Activity: Non-Toxic
[7]
  Activity: Non-Toxic
[8]
  IC50: 450 nM
[9]
  Activity: Active
[10]
  inhibition in vivo at 20 mg/kg: 68.9%
[11]
  Activity: 16.5%
[12]
  IC50: 4.89 µM
[13]
  Activity: 2.15%
[14]
  Activity: inactive
[15]
  Activity: 2.91%
[16]
  Activity: Non-Toxic
[17]
  T1/2: 2.06 h
[18]
  Activity: Active
[19]
  inhibition: Dose-Dependent Effect
[20]
  Activity: inactive
[21]
  Activity: inactive
[22]
  Activity: Non-Toxic
[23]
  inhibition: Dose-Dependent Effect
[24]
  Activity: Active
[25]
  inhibition: Dose-Dependent Effect
[26]
  T1/2: 1.96 h
[27]
  Activity: Non-Toxic
[28]
  Kd: 290 µM
[29]
  half-life: 13.8 min
[30]
  AUC(0-inf): 6740 ng·h/mL
[31]
  Activity: Active
[32]
  IC50: 4.46 µM
[33]
  Activity: 55.4%
